According to patent EP2407164A1, “Copper II complexes of phenanthroline and their use in cancer treatment” (Dublin Institute of Technology Intellectual Property Ltd, priority 2010, dated 2012):
Numbered stars: 1 amine (or outer) side, 2 acyl side, 3 side chain; on linkers, the order of the positions; unused ones are H or OH. Bridge positions count the residues as written; N and C are the ends. Square brackets hold non-standard residues; d marks the D form. Peptide text beside a SMILES is read from it. I, II: the chains in the order shown. Actinocin(9to1) = Cc1c2oc3c(C)ccc(C(=O)[*:1])c3nc-2c(C(=O)[*:2])c(N)c1=O; NMeV = CN[CH](C(=O)O)C(C)C; Sar = CNCC(=O)O

Legend:
MCF-7 = assay: MTT cytotoxicity assay, complexes 1-6; assay type: cell-based, Human; details: 24 hr exposure, mean of three independent experiments +/- standard error
Protocol: (§1) Human colon cancer cell line, HT29 (passage 17 to 30, ATCC, USA), was grown in McCoys's 5a medium supplemented with 2mM L-glutamine and fetal bovine serum (FBS) 10% and containing 100U/ ml penicillin and 100µg / ml streptomycin at 37°C in a humidified atmosphere with 5% CO2 Human Breast Cancer cell line, MCF-7 (passage 16 to 26, ATCC, USA) was grown in Eagle's minimum essential medium containing 2mM L-glutamine, 100U/ ml penicillin,100µg/ ml streptomycin, FBS (10%), 1mM sodium pyruvate and 1% (v/v) non essential amino acids at 37°C in a humidified atmosphere with 5% CO2 Human prostate cancer cell line, DU145 (passage 12 to 29, ATCC, USA) was grown in Eagle's minimum essential medium containing 2mM L-glutamine, 100U/ ml penicillin, 100µg/ ml streptomycin, FBS (10%), 1mM sodium pyruvate and 1% (v/v) non essential amino acids at 37°C in a humidified atmosphere with 5% CO2. All drugs were tested by MTT assay following 24-hour exposure of cells to each compound. Each value represents the mean IC50 of three independent experiments +/- standard error.
(§2) MTT Assay. This method is based on the reduction of the tetrazolium salt, methylthiazolyldiphenyl-tetrazolium bromide (MTT) into a crystalline blue formazan product by the cellular oxidoreductases of viable cells. The resultant formazan crystal formation is proportional to the number of viable cells. Cells were seeded at 4x 10^5 cells/ml in 96-well plates and incubated at 37°C in 5% CO2 for 24 hours. Cells were treated with a four log range of concentration of the test compounds in triplicate from 0.1 to 500 µM or with a solvent control (0.5% DMSO) in complete medium. Following 24 h incubation, cells were incubated with 20 µl of MTT (5 mg/ml) in 0.1 M PBS, pH 7.4 at 37 °C in a humid atmosphere with 5% CO2 for 4 h. Media was then gently aspirated from test cultures and 100 µL of dimethyl sulphoxide (DMSO) was added to all wells. The plates were then shaken for 2 min and the absorbance was read at 550 nm in a Varioscan plate reader. The IC50 was defined as the concentration of test compound required to reduce the absorbance of the MTT-formazan crystals by 50%, indicating 50% cell deactivation.

DU145 = assay: MTT cytotoxicity assay, complexes 1-6; assay type: cell-based, Human; details: 24 hr exposure, mean of three independent experiments +/- standard error
Protocol: as §1, §2

HT29 [1] = assay: MTT cytotoxicity assay, complexes 1-6; assay type: cell-based, Human; details: 24 hr exposure, mean of three independent experiments +/- standard error
Protocol: as §1, §2

SK-OV-3 = assay: MTT cytotoxicity assay, complexes 1-6; assay type: cell-based, Human; details: SK-OV-3 ovarian cancer, 24 hr exposure, mean of three independent experiments +/- standard error
Protocol: as §2
Cu(II) bis-phen complexes 4-6 display rapid, low micomolar toxicities against all tumor lines. […] It should be noted that 6 is dinuclear and so contains two active copper units, which may explain this heightened potency.

poly[d(G-C)]2 = assay: DNA-ethidium fluorescence quenching; assay type: binding; details: Q = equivalent concentration required to reduce fluorescence by 50%; 2.0 µM EtBr, 20 µM DNAp, 2 mM NaOAc buffer, 9.3 mM NaCl, pH 5.0
Protocol: (§3) DNA-Ethidium Fluorescence Quenching. Working solutions containing 20 µM poly[d(AT)]2 (ε260 = 13,100 M(bp)^-1 cm^-1), poly[d(G-C)]2 (ε260 = 16,800 M(bp)^-1 cm^-1) and CT-DNAp (ε260 = 12,824 M(bp)^-1 cm^-1) along with 2.0 µM Et in NaOAc buffer (2 mM NaOAc, 9.3 mM NaCl, 0.1 mM Na2EDTA, pH = 5.0) were prepared. Subsequent experimental steps are identical to the displacement experiment with the exception that a fluorescence reading of 200 arbitrary units with measurements being recorded over a 20-s interval was used. From a plot of the fluorescence vs added drug concentration, the Q values is given by the concentration required to effect 50% removal of the initial fluorescence.

poly[d(A-T)]2 = assay: DNA-ethidium fluorescence quenching; assay type: binding; details: Q = equivalent concentration required to reduce fluorescence by 50%; 2.0 µM EtBr, 20 µM DNAp, 2 mM NaOAc buffer, 9.3 mM NaCl, pH 5.0
Protocol: as §3

CT-DNA = assay: Competitive ethidium bromide displacement; assay type: binding, calf; details: 1.2 µM EtBr, 1 µM CT-DNAp, pH 7.0; for Kapp (apparent binding constant): Kapp = Ke x 1.26/C50 where Ke = 9.5 x 10^6 M(bp)^-1; for IC50: final volume 2 mL, 10 mM TES, 0.1 mM Na2EDTA, read-out: C50 = concentration required to reduce fluorescence by 50%
Protocol: Competitive Ethidium Displacement. […] Complexes 4-6, actinomycin D, pentamidine isethionate were prepared at 2.0 mM in DMSO. Two millilitres of DNA-Et solution were placed in a 10-mm quartz cuvet (3 mL) and positioned in a temperature controlled (20°C) spectrofluorometer (Perkin Elmer LS55B Luminescence Spectrometer). Excitation and emission wavelengths were set to 546 and 595 nm, respectively. After thermal equilibrium was established the emission and excitation slits were modified to give a fluorescence reading of 50 arbitrary units with measurements being recorded over a 20-s interval. An aliquot of complex or drug solution was taken (0.5 - 10 µL), was added to the cuvette and after equilibration the fluorescence reading was recorded. Repeated aliquots were added until the fluorescence was 20-40% of the initial control. Triplicate titrations were preformed and the apparent binding constants were calculated using Kapp = Ke x 1.26/C50 where Ke = 9.5 x 10^6 M(bp)^-1.

[2] = Solubility in organic solvents; details: DMSO/DMF
HT29 [3] = assay: MTT cytotoxicity assay, complex 7; assay type: cell-based, Human; details: HT29 colon cancer line, 24 hr
Protocol: (§4) For cytotoxicity evaluation HT29, SW480 and SW620 cell lines were employed; all the cell lines were grown in RPMI 1640 media (Fischer). All media were supplemented with 10% foetal bovine serum (FBS) and 45 IU/ml penicillin and 45 µg/ml streptomycin and cells were maintained at 37 °C in a 5% CO2 humidified incubator.
(§5) For sterilisation samples were filtered with a 0.2 micron cellulose acetate filter. For cytotoxicological evaluation all samples were prepared fresh on the day of exposure. A stock concentration of test compound was prepared in the exposure media (10% DMEM F-12) necessary for the cell line under test. This sample was vortexed to ensure a uniform dispersion of the compound under test.
For cytotoxicity assays cells were seeded in 96-well microplates (Nunc, Denmark) at a density of 1 x 10^5 cells/ml for the 24 hr test, 5 x10^4 cells/ml for the 48 hr test and 3 x 10^4 cells/ml for the 96 hr test. […] After 24 h of cell attachment, plates were washed with 100 µl/well phosphate buffered saline (PBS) and the cells were treated with increasing concentrations of each compound for 24 h. […] The plate was shaken at 240 rpm for 10 min and the absorbance was measured at 570 nm.
At least three independent experiments were conducted in triplicate for each cell line and toxicity endpoint. […] Differences between samples and the control were evaluated using the statistical analysis package SPSS 14.0. […]

SW480 = assay: MTT cytotoxicity assay, complex 7; assay type: cell-based; details: SW480 (Dukes' B) colon cancer line, 24 hr
Protocol: as §4, §5
(§6) For cytotoxicity assays cells were seeded in 96-well microplates (Nunc, Denmark) at a density of 1 x 10^5 cells/ml for the 24 hr test, 5 x10^4 cells/ml for the 48 hr test and 3 x 10^4 cells/ml for the 96 hr test. […] After 24 h of cell attachment, plates were washed with 100 µl/well phosphate buffered saline (PBS) and the cells were treated with increasing concentrations of each compound for 24 h. Six replicate wells were used for each control and test concentration per microplate. Following the desired time of compound exposure, control medium or test exposures were removed, the cells were rinsed with PBS and 100 µl of fresh medium (without FBS or supplements) was added to each well. 10 µl of MTT (5 mg/ml) prepared in PBS was then added to each well and the plates were incubated for 3 h at 37°C in a 5% CO2 humidified incubator. After this incubation period the medium was discarded, the cells were washed with 100 µl of PBS and 100 µl of DMSO was added to each well to extract the dye. The plate was shaken at 240 rpm for 10 min and the absorbance was measured at 570 nm.
(§7) At least three independent experiments were conducted in triplicate for each cell line and toxicity endpoint. […] Control values were set as 100%. Differences between samples and the control were evaluated using the statistical analysis package SPSS 14.0. Statistically significant differences were set at p≤0.05.

SW620 = assay: MTT cytotoxicity assay, complex 7; assay type: cell-based; details: SW620 (Dukes' C) colon cancer line, 24 hr
Protocol: as §4, §5, §6, §7

[4] = Homo sapiens, MCF7, MCF-7 breast cancer
[5] = Homo sapiens, DU-145, DU145 prostate cancer
[6] = Homo sapiens, HT-29, HT29 colon cancer

| Compound | IC50 (MCF-7; MCF-7 breast cancer) | IC50 (DU145; DU145 prostate cancer) | IC50 (HT29 [1]; HT29 colon cancer) | IC50 (SK-OV-3) | IC50 (poly[d(G-C)]2) | IC50 (poly[d(A-T)]2) | Kapp (apparent binding constant) (CT-DNA) | IC50 (CT-DNA) | IC50 (MCF-7; [4]) | IC50 (DU145; [5]) | IC50 (HT29 [1]; [6]) | IC50 (SK-OV-3; Homo sapiens) | further results |
| --- | --- | --- | --- | --- | --- | --- | --- | --- | --- | --- | --- | --- | --- |
| N.N.[Cl][Pt][Cl] [Cisplatin, reference compound] | 90.8 ± 3.5 µM | > 500 µM | 349 ± 80.6 µM | > 500 µM |  |  |  |  |  |  |  |  |  |
| O.O.O.O.O.O=C([O-])c1cccc(C(=O)[O-])c1.[Cu+2].c1cnc2c(c1)ccc1cccnc12.c1cnc2c(c1)ccc1cccnc12 [Complex 5, [Cu(isoph)(phen)2]5H2O] | 41.2 ± 1.4 µM | 10.6 ± 2.2 µM | 5.8 ± 0.2 µM | 6.6 ± 0.4 µM | 37.3 µM | 20.9 µM | 1.20x10^5 M(bp)^-1 | 99.8 µM |  |  |  |  | Solubility [2]: DMSO/DMF |
| Cc1c2oc3c(C)ccc(C(=O)NC4C(=O)NC(C(C)C)C(=O)N5CCCC5C(=O)N(C)CC(=O)N(C)C(C(C)C)C(=O)OC4C)c3nc-2c(C(=O)NC2C(=O)NC(C(C)C)C(=O)N3CCCC3C(=O)N(C)CC(=O)N(C)C(C(C)C)C(=O)OC2C)c(N)c1=O (stereo not drawn) [actinomycin D, reference compound] (I: TVP[Sar][NMeV] / II: TVP[Sar][NMeV]; ester I:1-I:C, II:1-II:C; linker I:N-II:N via Actinocin(9to1); configuration not given here) |  |  |  |  | 4.25 µM | 314 µM | 9.69 x 10^5 M(bp)^-1 | 12.3 µM |  |  |  |  |  |
| O=C(O)c1cccc(C(=O)O)c1 [isophH2, isophthalic acid, reference compound] |  |  |  |  |  |  |  |  | > 500 µM | > 500 µM | > 500 µM | > 500 µM |  |
| O=C1c2c(O)ccc(O)c2C(=O)c2c(NCCNCCO)ccc(NCCNCCO)c21 [mitoxantrone, reference compound] |  |  |  |  |  |  |  |  | 7.5 ± 0.2 µM | 27.3 ± 5.6 µM | 8 ± 0.6 µM | 54.5 ± 2.6 µM |  |
| N=C(N)c1ccc(OCCCCCOc2ccc(C(=N)N)cc2)cc1 [pentamidine, reference compound] |  |  |  |  | 203 µM | 44.9 µM | 6.07x10^5 M(bp)^-1 | 19.7 µM |  |  |  |  |  |
| O=C(O)c1ccccc1C(=O)O [phH2, phthalic acid, reference compound] |  |  |  |  |  |  |  |  | > 500 µM | > 500 µM | > 500 µM | > 500 µM |  |
| c1cnc2c(c1)ccc1cccnc12 [phen, 1,10-phenanthroline] |  |  |  |  |  |  |  |  | 338 ± 64.7 µM | 272 ± 8 µM | 377 ± 9.2 µM | 286 ± 28.5 µM | Activity LD50 (HT29 [3]): >100 µM; Activity LD50 (SW480): >100 µM; Activity LD50 (SW620): >100 µM |
| O=C(O)c1ccc(C(=O)O)cc1 [terphH2, terephthalic acid, reference compound] |  |  |  |  |  |  |  |  | > 500 µM | > 500 µM | > 500 µM | > 500 µM |  |
| [Cu(ph)(phen)2]8H2O [Complex 4] | 44.9 ± 7 µM | 11.6 ± 4.5 µM | 6 ± 0.4 µM | 6.7 ± 0.4 µM | 69.8 µM | 26.2 µM | 1.21x10^5 M(bp)^-1 | 99.1 µM |  |  |  |  | Solubility [2]: forms only suspensions in DMSO/DMF |
| {[Cu(isoph)(H2O)3]2H2O}n [Complex 2] | 401 ± 54.1 µM | 422 ± 22.4 µM | > 500 µM | 436 ± 29.4 µM |  |  |  |  |  |  |  |  | Solubility [2]: DMSO/DMF |
| {[Cu(ph)(H2O)]}n [Complex 1] | > 500 µM | > 500 µM | > 500 µM | > 500 µM |  |  |  |  |  |  |  |  |  |
| {[Cu(tereph)(H2O)3]2H2O}n [Complex 3] | 414 ± 26 µM | > 500 µM | > 500 µM | > 500 µM |  |  |  |  |  |  |  |  |  |
